The values below come from patent US20260102359A1, “COMBINATION TREATMENT OF DERMAL AND TRANSDERMAL FIBROTIC DISEASES, DISORDERS AND ASSOCIATED PAIN AND INFLAMMATION” (ERESINA, LLC, priority 2022, published 2026).

Each structure is given as a SMILES string. Where a name gives a salt, the structure may show the parent alone.

The data set concerns hDMFa myofibroblast cells.

As for `Cc1[nH]cnc1CN1CCc2c(c3ccccc3n2C)C1=O.Cl` [Cmpd 101, Alosetron Hydrochloride], the “Compound Myofibroblast Cytotoxicity Activity” value is on record as “++++”.
For `N=C(N)NC(=O)c1nc(Cl)c(N)nc1N` [Cmpd 105, Amiloride HCl dihydrate], the “Compound Myofibroblast Cytotoxicity Activity” value is recorded as “++”.
Regarding `CCCCc1oc2ccccc2c1C(=O)c1cc(I)c(OCCN(CC)CC)c(I)c1` [Cmpd 107, Amiodarone HCl], the “Compound Myofibroblast Cytotoxicity Activity” value is recorded as “+++”.
Regarding `CCOC(=O)C1=C(COCCN)NC(C)=C(C(=O)OC)C1c1ccccc1Cl` (stereo not shown) [Cmpd 110, Amlodipine], the “Compound Myofibroblast Cytotoxicity Activity” value is given as “+++”.
In the case of `CCOC(=O)C1=C(COCCN)NC(C)=C(C(=O)OC)C1c1ccccc1Cl` (stereo not shown) [Cmpd 111, Amlodipine Besylate], the “Compound Myofibroblast Cytotoxicity Activity” value is “++++”.
For the compound `CCC(C)(C)c1ccc(CC(C)CN2C[C@@H](C)O[C@@H](C)C2)cc1` (stereo partly shown) [Cmpd 113, Amorolfine HCl], the “Compound Myofibroblast Cytotoxicity Activity” value is “+++”.
`COc1cc(NS(C)(=O)=O)ccc1Nc1c2ccccc2nc2ccccc12.Cl` [Cmpd 116, Amsacrine hydrochloride]: the “Compound Myofibroblast Cytotoxicity Activity” value is “+++”.
Take `S=C(NCc1ccc2c(c1)OCO2)N1CCN(c2ncnc3c2oc2ccccc23)CC1` [Cmpd 117, Amuvatinib (MP-470,HPK 56)]: the “Compound Myofibroblast Cytotoxicity Activity” value is given as “++”.
Regarding `C[C@@H](O[C@H]1OCCN(Cc2n[nH]c(=O)[nH]2)[C@H]1c1ccc(F)cc1)c1cc(C(F)(F)F)cc(C(F)(F)F)c1` [Cmpd 126, Aprepitant], the “Compound Myofibroblast Cytotoxicity Activity” value is “++++”.
In the case of `O=C1CCc2ccc(OCCCCN3CCN(c4cccc(Cl)c4Cl)CC3)cc2N1` [Cmpd 129, Aripiprazole], the “Compound Myofibroblast Cytotoxicity Activity” value is given as “+++”.
For the compound `COc1cccc2c1cc([N+](=O)[O-])c1c(C(=O)O)cc3c(c12)OCO3` [Cmpd 130, Aristolochic Acid A], the “Compound Myofibroblast Cytotoxicity Activity” value was “++”.
`C[C@H]1[C@H](OC(=O)CCC(=O)O)O[C@@H]2O[C@@]3(C)CC[C@H]4[C@H](C)CC[C@@H]1[C@@]24OO3` [Cmpd 132, Artesunate]: the “Compound Myofibroblast Cytotoxicity Activity” value is on record as “+++”.
For the compound `CC[C@@H]1/C=C(\C)C[C@H](C)C[C@H](OC)[C@H]2O[C@@](O)(C(=O)C(=O)N3CCCC[C@H]3C(=O)O[C@H](/C(C)=C/[C@@H]3CC[C@@H](O)[C@H](OC)C3)[C@H](C)[C@@H](O)CC1=O)[C@H](C)C[C@@H]2OC` [Cmpd 133, Ascomycin(FK 520)], the “Compound Myofibroblast Cytotoxicity Activity” value was “+++”.
On to `COc1ccc(CCN2CCC(Nc3nc4ccccc4n3Cc3ccc(F)cc3)CC2)cc1` [Cmpd 136, Astemizole], for which the “Compound Myofibroblast Cytotoxicity Activity” value is reported as “++++”.
In the case of `COC(=O)N[C@H](C(=O)N[C@@H](Cc1ccccc1)[C@@H](O)CN(Cc1ccc(-c2ccccn2)cc1)NC(=O)[C@@H](NC(=O)OC)C(C)(C)C)C(C)(C)C` [Cmpd 138, Atazanavir], the “Compound Myofibroblast Cytotoxicity Activity” value was “++”.
As to `CC(C)c1c(C(=O)Nc2ccccc2)c(-c2ccccc2)c(-c2ccc(F)cc2)n1CC[C@@H](O)C[C@@H](O)CC(=O)[O-].CC(C)c1c(C(=O)Nc2ccccc2)c(-c2ccccc2)c(-c2ccc(F)cc2)n1CC[C@@H](O)C[C@@H](O)CC(=O)[O-].[Ca+2]` [Cmpd 140, Atorvastatin Calcium], the “Compound Myofibroblast Cytotoxicity Activity” value is “++++”.
Take `COc1ccc(CC2c3cc(OC)c(OC)cc3CC[N+]2(C)CCC(=O)OCCCCCOC(=O)CC[N+]2(C)CCc3cc(OC)c(OC)cc3C2Cc2ccc(OC)c(OC)c2)cc1OC` (stereo not shown) [Cmpd 142, Atracurium Besylate]: the “Compound Myofibroblast Cytotoxicity Activity” value is on record as “+++”.
Turning to `CCOc1nc2cccc(C(=O)OCc3oc(=O)oc3C)c2n1Cc1ccc(-c2ccccc2-c2noc(=O)[nH]2)cc1` [Cmpd 149, Azilsartan Medoxomil], the “Compound Myofibroblast Cytotoxicity Activity” value is “++”.
On to `Cc1ccc(NC(=O)c2ccc(CN3CC[C@H](N(C)C)C3)c(C(F)(F)F)c2)cc1Nc1nccc(-c2cncnc2)n1` [Cmpd 152, Bafetinib (INNO-406)], for which the “Compound Myofibroblast Cytotoxicity Activity” value was “+++”.
For `CNC1CCCN(c2c(F)cc3c(=O)c(C(=O)O)cn(C4CC4)c3c2OC)C1` (stereo not shown) [Cmpd 154, Balofloxacin Dihydrate] the value was “++”; for `COC(=O)[C@]12CCC(C)(C)C[C@H]1[C@H]1C(=O)C=C3[C@@]4(C)C=C(C#N)C(=O)C(C)(C)[C@@H]4CC[C@@]3(C)[C@]1(C)CC2` [Cmpd 156, Bardoxolone methyl], “+++++”.
As for `CC(C)(C)c1ccc(S(=O)(=O)/C=C/C#N)cc1` [Cmpd 157, Bay 11-7085], the “Compound Myofibroblast Cytotoxicity Activity” value was “+++++”.
In the case of `Cc1ccc(S(=O)(=O)/C=C/C#N)cc1` [Cmpd 158, Bay 11-7821(BAY 11-7082)], the “Compound Myofibroblast Cytotoxicity Activity” value is “+++++”.
Consider `Cc1c(-c2ccc(O)cc2)n(Cc2ccc(OCCN3CCCCCC3)cc2)c2ccc(O)cc12` [Cmpd 159, Bazedoxifene acetate], for which the “Compound Myofibroblast Cytotoxicity Activity” value was “++++”.
With `COC(=O)C1=C(C)NC(C)=C(C(=O)OC2CCCN(Cc3ccccc3)C2)C1c1cccc([N+](=O)[O-])c1` (stereo not shown) [Cmpd 161, Benidipine HCl], the “Compound Myofibroblast Cytotoxicity Activity” value was “++”.
Turning to `NC(CO)C(=O)NNCc1ccc(O)c(O)c1O` (stereo not shown) [Cmpd 162, Benserazide HCl], the “Compound Myofibroblast Cytotoxicity Activity” value is reported as “++”.
On to `Cl.N=C(N)c1ccccc1` [Cmpd 163, Benzamidine HCl], for which the “Compound Myofibroblast Cytotoxicity Activity” value was “+++”.
In the case of `CCc1oc2ccccc2c1C(=O)c1cc(Br)c(O)c(Br)c1` [Cmpd 164, Benzbromarone], the “Compound Myofibroblast Cytotoxicity Activity” value is given as “++++”.
`CCOC(=O)c1ccc(N)cc1` [Cmpd 166, Benzocaine]: the “Compound Myofibroblast Cytotoxicity Activity” value is “++”.
For `O=C(O)c1ccccc1` [Cmpd 167, Benzoic Acid] the value was “++”; for `O=C(c1ccccc1)c1ccccc1` [Cmpd 168, Benzophenone], “++”.
For the compound `COc1ccc2cc3[n+](cc2c1OC)CCc1cc2c(cc1-3)OCO2.[Cl-]` [Cmpd 172, Berberine hydrochloride], the “Compound Myofibroblast Cytotoxicity Activity” value is on record as “++”.
For `COc1ccc2cc3[n+](cc2c1OC)CCc1cc2c(cc1-3)OCO2` [Cmpd 173, Berberine Sulfate], the “Compound Myofibroblast Cytotoxicity Activity” value is “++”.
`CNCCc1ccccn1.CS(=O)(=O)O.CS(=O)(=O)O` [Cmpd 175, Betahistine mesylate]: the “Compound Myofibroblast Cytotoxicity Activity” value is “++”.
Next, `CCCCC(=O)O[C@]1(C(=O)CO)[C@@H](C)C[C@H]2[C@@H]3CCC4=CC(=O)C=C[C@]4(C)[C@@]3(F)[C@@H](O)C[C@@]21C` [Cmpd 176, Betamethasone Valerate]: “++”; `O=C(O)CCNC(=O)c1ccccc1` [Cmpd 177, Betamipron]: “+++++”.
`C=C(c1ccc(C(=O)O)cc1)c1cc2c(cc1C)C(C)(C)CCC2(C)C` [Cmpd 178, Bexarotene]: the “Compound Myofibroblast Cytotoxicity Activity” value is “++++”.
For `c1ccc(-c2ccc(C(c3ccccc3)n3ccnc3)cc2)cc1` (stereo not shown) [Cmpd 182, Bifonazole] the value was “+++”.
For `Cc1ccc(-n2nc(C(C)(C)C)cc2NC(=O)Nc2ccc(OCCN3CCOCC3)c3ccccc23)cc1` [Cmpd 183, BIRB 796 (Doramapimod)] the value was “++”; for `CC[C@H](NC(=O)[C@H](C)NC)C(=O)N1C[C@@H](O)C[C@H]1Cc1c(-c2[nH]c3cc(F)ccc3c2C[C@@H]2C[C@H](O)CN2C(=O)[C@H](CC)NC(=O)[C@H](C)NC)[nH]c2cc(F)ccc12` [Cmpd 184, Birinapant (TL32711)], “++”; for `CC(C)(c1ccc(O)cc1)c1ccc(O)cc1` [Cmpd 186, Bisphenol A], “++”.
Regarding `CCN1CCN(c2cc(-c3ccc(F)cc3)c3c(n2)CCCCCC3)CC1` [Cmpd 187, Blonanserin], the “Compound Myofibroblast Cytotoxicity Activity” value was “+++”.
As to `O=c1ccc2ccc(OCCCCN3CCN(c4cccc5sccc45)CC3)cc2[nH]1` [Cmpd 191, Brexpiprazole], the “Compound Myofibroblast Cytotoxicity Activity” value is “+++”.
Next, `Oc1c(Br)cc(Br)c2cccnc12` [Cmpd 194, Broxyquinoline]: “+++”.
With `O=C(O)CCC(=O)O` [Cmpd 196, Butane diacid], the “Compound Myofibroblast Cytotoxicity Activity” value was “++”.
As to `CN(Cc1ccc(C(C)(C)C)cc1)Cc1cccc2ccccc12` [Cmpd 197, Butenafine HCl], the “Compound Myofibroblast Cytotoxicity Activity” value is recorded as “+++”.
Turning to `Clc1ccc(CCC(Cn2ccnc2)Sc2c(Cl)cccc2Cl)cc1` (stereo not shown) [Cmpd 198, Butoconazole nitrate], the “Compound Myofibroblast Cytotoxicity Activity” value is listed as “+++”.
As to `COc1cc2nccc(Oc3ccc(NC(=O)C4(C(=O)Nc5ccc(F)cc5)CC4)cc3)c2cc1OC.O=C(O)C[C@H](O)C(=O)O` [Cmpd 199, Cabozantinib malate (XL184)], the “Compound Myofibroblast Cytotoxicity Activity” value was “++”.
`O=C(O)/C=C/c1ccc(O)c(O)c1` [Cmpd 200, Caffeic acid]: the “Compound Myofibroblast Cytotoxicity Activity” value is given as “+”.
For `O=C(/C=C/c1ccc(O)c(O)c1)OCCc1ccccc1` [Cmpd 201] the value was “++”; for `C=C1CC[C@H](O)C/C1=C/C=C1\CCC[C@]2(C)[C@@H]([C@H](C)CCCC(C)(C)O)CC[C@@H]12` [Cmpd 202, Calcifediol], “+++”.
On to `C=C1/C(=C\C=C2/CCC[C@]3(C)[C@@H]([C@H](C)/C=C/[C@@H](O)C4CC4)CC[C@@H]23)C[C@@H](O)C[C@@H]1O` [Cmpd 203, Calcipotriol], for which the “Compound Myofibroblast Cytotoxicity Activity” value is “+++”.
For `C=C1/C(=C\C=C2/CCC[C@]3(C)[C@@H]([C@H](C)CCCC(C)(C)O)CC[C@@H]23)C[C@@H](O)C[C@@H]1O` [Cmpd 204, Calcitriol] the value was “+++”; for `O=S(=O)([O-])c1cc(O)ccc1O.O=S(=O)([O-])c1cc(O)ccc1O.[Ca+2]` [Cmpd 205, Calcium dobesilate], “++”.
Next, `C=C(C)[C@@H]1CC[C@@]2(C)[C@H]1[C@H]1CCC3[C@@]4(C)CC[C@H](O)C(C)(C)[C@@H]4CC[C@@]3(C)[C@]1(C)C[C@@H]2O` (stereo partly shown) [Cmpd 207, Calenduladiol]: “+”.
